Laboratory results taken from patent US11976072B2, “Diacylglycerol kinase modulating compounds” (priority 2021, dated 2024).
pEC50, pIC50: −log10 of the molar value.

What was measured:
human DGKα = human DGKα (Homo sapiens, UniProt P23743); experiment: DGKα Biochemical Activity Assay (ADP-Glo); conditions: recombinant DGKα 1 nM, 100 μM ATP, 18:1 DAG/POPS/octylglucoside micelles, 1 hour at 25° C.; geometric mean; read-out: HTBS DGKa 1X ATP KM IC50;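 further: luminescent detection of ADP produced as DGKα phosphorylates DAG to phosphatidic acid, IC50 from four-parameter nonlinear curve fit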
Source text: Alternatively, the enzymatic activity of human DGKα was monitored in a biochemical assay in the presence or absence of compounds and using micelles containing 18:1 Diacylglycerol (DAG), 16:0-18:1 PS (POPS) and Octylglucoside as substrate. DGKα activity led to conversion of DAG and ATP to Phosphatidic Acid (PA) and ADP. Levels of ADP were monitored by bioluminescence using the ADP-Glo Kinase Assay (Promega) and were indicative of DGKα activity.
Recombinant DGKα (Carna Biosciences) in assay buffer (5 μL in 50 mM MOPS [3-(N-morpholino) propanesulfonic acid], pH 7.2; 0.0025% Triton X-100; 1 mM dithiothreitol; 5 mM MgCl2, 200 μM ATP) was added to the compound-containing plate and was incubated for 15 minutes at 25° C. […] The reaction mixture was incubated at 25° C. for 1 hour. ADP-Glo Reagent (10 μL, 10 mM Mg added) provided by the kit was added to each well and incubated at 25° C. for 40 minutes. Then, 20 μL of Kinase Detection Reagent was added and incubated at 25° C. for 40 minutes. Luciferase activity of each well was measured via luminescence on an Envision plate reader (PerkinElmer).
Least squares curve fittings were performed using a four-parameter variable slope nonlinear regression model. […] IC50 values from multiple experiments were averaged by geometric mean and the standard deviation was calculated.

[1] = test system: Jurkat NFκB-luciferase cells; experiment: Jurkat NFκB-Luciferase Assay; format: cell-based; conditions: Homo sapiens; Jurkat NFκB-luciferase cells activated with anti-CD3 antibody (OKT3), 2.5 hrs at 37° C.; geometric mean; read-out: DGK NFKb Luciferase EC50
Outline: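 Luminescence from One-Glo Ex, read 7 min post-addition, reports NFκB activation in Jurkat luciferase reporter cells. Cells, diluted to 1 million cells/ml in 10% FBS RPMI, were dispensed onto plates holding compound and washed, pre-bound antibody.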

Chain of human DGKα (P23743 whole entry): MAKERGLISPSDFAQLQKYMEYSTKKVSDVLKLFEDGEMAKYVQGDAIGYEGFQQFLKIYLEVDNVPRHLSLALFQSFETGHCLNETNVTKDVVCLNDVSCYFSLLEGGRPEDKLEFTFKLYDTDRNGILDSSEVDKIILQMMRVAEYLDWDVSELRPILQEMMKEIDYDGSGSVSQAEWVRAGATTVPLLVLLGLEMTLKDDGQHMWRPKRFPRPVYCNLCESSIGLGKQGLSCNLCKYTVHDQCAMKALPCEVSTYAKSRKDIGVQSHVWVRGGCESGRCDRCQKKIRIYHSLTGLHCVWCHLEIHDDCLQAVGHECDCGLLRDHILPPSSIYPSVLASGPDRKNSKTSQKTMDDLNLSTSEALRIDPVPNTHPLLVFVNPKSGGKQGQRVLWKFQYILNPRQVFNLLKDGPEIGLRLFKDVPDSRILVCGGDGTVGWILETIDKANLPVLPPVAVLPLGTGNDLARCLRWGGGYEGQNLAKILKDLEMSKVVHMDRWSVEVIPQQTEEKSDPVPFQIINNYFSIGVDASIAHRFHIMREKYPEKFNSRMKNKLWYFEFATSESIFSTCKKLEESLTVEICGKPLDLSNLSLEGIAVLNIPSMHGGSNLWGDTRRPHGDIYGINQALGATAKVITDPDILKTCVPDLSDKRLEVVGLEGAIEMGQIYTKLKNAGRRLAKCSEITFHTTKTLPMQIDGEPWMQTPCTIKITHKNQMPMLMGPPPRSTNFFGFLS

| pIC50 (human DGKα) | pEC50 [1] | Compound |
| --- | --- | --- |
| 7.70 | 8.66 | Cc1cnc(C(C)(C)C#Cc2cccc3c2CCCN3c2nc3nnc(C)n3c3cccc(F)c23)o1 [Example 72, 2-(4-(1-(6-fluoro-1-methyl-[1,2,4]triazolo[4,3-a]quinazolin-5-yl)-1,2,3,4-tetrahydroquinolin-5-yl)-2-methylbut-3-yn-2-yl)-5-methyloxazole] |
| 7.21 | 7.97 | Cc1nnc2nc(N3CCCc4c(C#CC(C)(C)C(=O)O)cccc43)c3c(F)cccc3n12 [Example 73, 4-(1-(6-fluoro-1-methyl-[1,2,4]triazolo[4,3-a]quinazolin-5-yl)-1,2,3,4-tetrahydroquinolin-5-yl)-2,2-dimethylbut-3-ynoic Acid] |
| 7.54 | 8.47 | COc1ccc(C#Cc2nccc3c2CCCN3c2nc3nnc(C)n3c3cccc(F)c23)cn1 [Example 75, 6-fluoro-5-(5-((6-methoxypyridin-3-yl)ethynyl)-3,4-dihydro-1,6-naphthyridin-1(2H)-yl)-1-methyl-[1,2,4]triazolo[4,3-a]quinazoline] |
| 7.87 | 8.10 | Cc1nccn1C(C)(C)C#Cc1cccc2c1CCCN2c1nc2nnc(C)n2c2cccc(F)c12 [Example 76, 6-fluoro-1-methyl-5-(5-(3-methyl-3-(2-methyl-1H-imidazol-1-yl)but-1-yn-1-yl)-3,4-dihydroquinolin-1(2H)-yl)-[1,2,4]triazolo[4,3-a]quinazoline] |
| 7.81 | 8.71 | Cc1nc(C(C)(C)C#Cc2cccc3c2CCCN3c2nc3nnc(C)n3c3cccc(F)c23)oc1C [Example 77, 2-(4-(1-(6-fluoro-1-methyl-[1,2,4]triazolo[4,3-a]quinazolin-5-yl)-1,2,3,4-tetrahydroquinolin-5-yl)-2-methylbut-3-yn-2-yl)-4,5-dimethyloxazole] |
| 7.39 | 8.11 | Cc1nnc2nc(N3CCCc4c(C#CC(C)(C)n5ccnc5)cccc43)c3c(F)cccc3n12 [Example 78, 5-(5-(3-(1H-imidazol-1-yl)-3-methylbut-1-yn-1-yl)-3,4-dihydroquinolin-1(2H)-yl)-6-fluoro-1-methyl-[1,2,4]triazolo[4,3-a]quinazoline] |
| 7.65 | 8.60 | Cc1nnc2nc(N3CCCc4c(C#CC(C)(C)c5ncco5)cccc43)c3c(F)cccc3n12 [Example 79, 2-(4-(1-(6-fluoro-1-methyl-[1,2,4]triazolo[4,3-a]quinazolin-5-yl)-1,2,3,4-tetrahydroquinolin-5-yl)-2-methylbut-3-yn-2-yl)oxazole] |
| 7.94 | 7.98 | Cc1nnc2nc(N(CC(F)F)c3ccnc(C#CC4CC4)c3)c3c(F)cccc3n12 [Example 82, N-(2-(cyclopropylethynyl)pyridin-4-yl)-N-(2,2-difluoroethyl)-6-fluoro-1-methyl-[1,2,4]triazolo[4,3-a]quinazolin-5-amine] |
| 8.07 | 8.92 | Cc1nnc2nc(N3CCCc4c(C#CC5(C)CC5)cncc43)c3c(F)c(F)ccc3n12 [Example 83, 6,7-difluoro-1-methyl-5-(5-((1-methylcyclopropyl)ethynyl)-3,4-dihydro-1,7-naphthyridin-1(2H)-yl)-[1,2,4]triazolo[4,3-a]quinazoline] |
| 8.14 | 8.65 | Cc1nnc2nc(N3CCCc4c3ccnc4C#CC3(C)CC3)c3c(F)c(F)ccc3n12 [Example 85, 6,7-difluoro-1-methyl-5-(5-((1-methylcyclopropyl)ethynyl)-3,4-dihydro-1,6-naphthyridin-1(2H)-yl)-[1,2,4]triazolo[4,3-a]quinazoline] |
| 7.98 | 8.94 | Cc1nnc2nc(N3CCCc4c(C#CC5(C(F)(F)F)CC5)cncc43)c3c(F)c(F)ccc3n12 [Example 88, 6,7-difluoro-1-methyl-5-(5-((1-(trifluoromethyl)cyclopropyl)ethynyl)-3,4-dihydro-1,7-naphthyridin-1(2H)-yl)-[1,2,4]triazolo[4,3-a]quinazoline] |
| 7.53 | 8.73 | Cc1nnc2nc(N3CCCc4c(C#CC(C)(C)C(F)(F)F)cncc43)c3c(F)c(F)ccc3n12 [Example 90, 6,7-difluoro-1-methyl-5-(5-(4,4,4-trifluoro-3,3-dimethylbut-1-yn-1-yl)-3,4-dihydro-1,7-naphthyridin-1(2H)-yl)-[1,2,4]triazolo[4,3-a]quinazoline] |

Second part, the compound before the results:

| Compound | pIC50 (human DGKα) | pEC50 [1] |
| --- | --- | --- |
| COc1ccc(C#Cc2cc(N(CC(F)F)c3nc4nnc(C)n4c4cccc(F)c34)ccn2)cn1 [Example 74, N-(2,2-difluoroethyl)-6-fluoro-N-(2-((6-methoxypyridin-3-yl)ethynyl)pyridin-4-yl)-1-methyl-[1,2,4]triazolo[4,3-a]quinazolin-5-amine] | 8.21 | 8.71 |
| Cc1nnc2nc(N(CC(F)F)c3ccnc(C#CC(C)(C)C(F)(F)F)c3F)c3c(F)c(F)ccc3n12 [Example 80, N-(2,2-difluoroethyl)-6,7-difluoro-N-(3-fluoro-2-(4,4,4-trifluoro-3,3-dimethylbut-1-yn-1-yl)pyridin-4-yl)-1-methyl-[1,2,4]triazolo[4,3-a]quinazolin-5-amine] | 7.82 | 8.67 |
| Cc1nnc2nc(N(CC(F)F)c3ccnc(C#CC4CC4)c3)c3c(F)c(F)ccc3n12 [Example 81, N-(2-(cyclopropylethynyl)pyridin-4-yl)-N-(2,2-difluoroethyl)-6,7-difluoro-1-methyl-[1,2,4]triazolo[4,3-a]quinazolin-5-amine] | 7.98 | 7.51 |
| Cc1nnc2nc(N(CC(F)F)c3ccnc(C#CC(C)(C)C(F)(F)F)c3)c3c(F)c(F)ccc3n12 [Example 84, N-(2,2-difluoroethyl)-6,7-difluoro-1-methyl-N-(2-(4,4,4-trifluoro-3,3-dimethylbut-1-yn-1-yl)pyridin-4-yl)-[1,2,4]triazolo[4,3-a]quinazolin-5-amine] | 8.30 | 8.61 |
| Cc1nnc2nc(N(CC(F)F)c3ccnc(C#CC4CC4)c3)c3cc(F)ccc3n12 [Example 87, N-(2-(cyclopropylethynyl)pyridin-4-yl)-N-(2,2-difluoroethyl)-7-fluoro-1-methyl-[1,2,4]triazolo[4,3-a]quinazolin-5-amine] | 8.46 | 8.12 |
| Cc1nnc2nc(N(CC(F)F)c3ccnc(C#CC4(C(F)(F)F)CC4)c3F)c3cc(F)ccc3n12 [Example 89] | 8.27 | 8.34 |
| Cc1nnc2nc(N(CC(F)F)c3ccnc(C#CC4(C)CC4)c3)c3c(F)c(F)ccc3n12 [Example 91, N-(2,2-difluoroethyl)-6,7-difluoro-1-methyl-N-(2-((1-methylcyclopropyl)ethynyl)pyridin-4-yl)-[1,2,4]triazolo[4,3-a]quinazolin-5-amine] | 8.46 | 8.42 |
| Cc1nnc2nc(N(CC(F)F)c3ccnc(C#CC4(C(F)(F)F)CC4)c3)c3c(F)c(F)ccc3n12 [Example 92, N-(2,2-difluoroethyl)-6,7-difluoro-1-methyl-N-(2-((1-(trifluoromethyl)cyclopropyl)ethynyl)pyridin-4-yl)-[1,2,4]triazolo[4,3-a]quinazolin-5-amine] | 7.86 | 8.28 |
| CC(C)(C#Cc1cc(N(CC(F)F)c2nc3nncn3c3ccc(F)c(F)c23)ccn1)C(F)(F)F [Example 93, N-(2,2-difluoroethyl)-6,7-difluoro-N-(2-(4,4,4-trifluoro-3,3-dimethylbut-1-yn-1-yl)pyridin-4-yl)-[1,2,4]triazolo[4,3-a]quinazolin-5-amine] | 8.09 | 8.58 |
| CC1(C#Cc2cc(N(CC(F)F)c3nc4nncn4c4ccc(F)c(F)c34)ccn2)CC1 [Example 94, N-(2,2-difluoroethyl)-6,7-difluoro-N-(2-((1-methylcyclopropyl)ethynyl)pyridin-4-yl)-[1,2,4]triazolo[4,3-a]quinazolin-5-amine] | 8.37 | 8.63 |
| Fc1ccc2c(c(N(CC(F)F)c3ccnc(C#CC4(C(F)(F)F)CC4)c3)nc3nncn32)c1F [Example 95, N-(2,2-difluoroethyl)-6,7-difluoro-N-(2-((1-(trifluoromethyl)cyclopropyl)ethynyl)pyridin-4-yl)-[1,2,4]triazolo[4,3-a]quinazolin-5-amine] | 8.11 | 8.56 |
| Cc1nnc2nc(N(CC(F)F)c3ccnc(C#CC4(C)CC4)c3)c3cc(F)ccc3n12 [Example 96, N-(2,2-difluoroethyl)-7-fluoro-1-methyl-N-(2-((1-methylcyclopropyl)ethynyl)pyridin-4-yl)-[1,2,4]triazolo[4,3-a]quinazolin-5-amine] | 8.21 | 8.29 |
| CC(C)(C#Cc1nccc(N(CC(F)F)c2nc3nncn3c3ccc(F)cc23)c1F)C(F)(F)F [Example 97, N-(2,2-difluoroethyl)-7-fluoro-N-(3-fluoro-2-(4,4,4-trifluoro-3,3-dimethylbut-1-yn-1-yl)pyridin-4-yl)-[1,2,4]triazolo[4,3-a]quinazolin-5-amine] | 7.74 | 8.41 |
| COCCN(c1cc(F)cc(C#CC2(C(F)(F)F)CC2)c1)c1nc2nncn2c2cccc(F)c12 [Example 98, 6-fluoro-N-(3-fluoro-5-((1-(trifluoromethyl)cyclopropyl)ethynyl)phenyl)-N-(2-methoxyethyl)-[1,2,4]triazolo[4,3-a]quinazolin-5-amine] | 7.07 | 7.73 |
| CC1(C#Cc2cncc3c2CCCN3c2nc3nncn3c3ccc(F)c(F)c23)CC1 [Example 99, 6,7-difluoro-5-(5-((1-methylcyclopropyl)ethynyl)-3,4-dihydro-1,7-naphthyridin-1(2H)-yl)-[1,2,4]triazolo[4,3-a]quinazoline] | 8.13 | 9.32 |
